2 molecules from ChEMBL document CHEMBL3244171, “[1-(beta-mercapto-beta,beta-cyclopentamethylenepropionic acid),4-valine,-8-D-arginine]vasopressin, a potent and selective inhibitor of the vasopressor response to arginine-vasopressin” (J Med Chem, 1978) can be followed below.

Where a SMILES comes first, the peptide text is derived from it.

Test [1] can be described thus: Antioxytocic activity in rat uterus assessed as antagonist activity on oxytocin-induced effect. Format: functional, tissue-based.
A further test has as its system Rattus norvegicus. Put plainly: Antidiuretic activity in iv dosed rat assessed as agonist activity on arginine-vasopressin-induced effect. In kind it is functional, Urine.

The term pA2 denotes a measure of antagonist potency on a negative log scale. As for `CC(C)[C@@H]1NC(=O)[C@H](Cc2ccccc2)NC(=O)[C@H](Cc2ccc(O)cc2)NC(=O)CC(C)(C)SSC[C@@H](C(=O)N2CCC[C@H]2C(=O)N[C@H](CCCNC(=N)N)C(=O)NCC(N)=O)NC(=O)[C@H](CC(N)=O)NC1=O` (HELM PEPTIDE1{Y.F.V.N.C.P.[dR].G.[am]}|CHEM1{[CC(C)(CC(=O)[*:1])S[*:2]]}$PEPTIDE1,CHEM1,1:R1-1:R1|PEPTIDE1,CHEM1,5:R3-1:R2$$$V2.0), the pA2 in test [1] is given as 7.23.

Consider `CC(C)[C@@H]1NC(=O)[C@H](Cc2ccccc2)NC(=O)[C@H](Cc2ccc(O)cc2)NC(=O)CC2(CCCCC2)SSC[C@@H](C(=O)N2CCC[C@H]2C(=O)N[C@H](CCCN=C(N)N)C(=O)NCC(N)=O)NC(=O)[C@H](CC(N)=O)NC1=O` (HELM PEPTIDE1{Y.F.V.N.C.P.[dR].G.[am]}|CHEM1{[O=C(CC1(S[*:2])CCCCC1)[*:1]]}$PEPTIDE1,CHEM1,1:R1-1:R1|PEPTIDE1,CHEM1,5:R3-1:R2$$$V2.0), for which the pA2 in test [1] is reported as 6.62. Moreover, in the test on Rattus norvegicus, the Activity is reported as 0.1 U/ml.
